Test results as given in patent publication EP0038629A1, “Virazole derivatives, process for their preparation and use as antiviral agents” (priority 1980, dated 1981).
Like-named read-outs stand apart in the source and are kept apart here. Marks after values point to notes of the source that are not given here.

System: mouse adapted strain of the A2/HK/l/68 virus
Conditions: 10^-4 mole/kg doses twice daily for 3 days; for Weight Change Day 0 -Day 3: dosing period, indication of toxicity

Compound	Day 8 Means Body Wt. (Expt. 1, subcutaneous) [gm]	Day 8 Means Lung WT./ Body Wt. Ratio x 100 (Expt. 1, subcutaneous)	Day 8 Means Lung Wt. (Expt. 1, subcutaneous) [mg]	Weight Change Day 3 -Day 8 (Expt. 1, subcutaneous)	Weight Change Day 0 -Day 3 (Expt. 1, subcutaneous)	Day 8 Means Body Wt. (Expt. 2, subcutaneous) [gm]	Day 8 Means Lung WT./ Body Wt. Ratio x 100 (Expt. 2, subcutaneous)	Day 8 Means Lung Wt. (Expt. 2, subcutaneous) [mg]	Weight Change Day 3 -Day 8 (Expt. 2, subcutaneous)	Weight Change Day 0 -Day 3 (Expt. 2, subcutaneous)	Day 8 Means Body Wt. (Expt. 3, oral) [gm]	Day 8 Means Lung WT./ Body Wt. Ratio x 100 (Expt. 3, oral)	Day 8 Means Lung Wt. (Expt. 3, oral) [mg]	Weight Change Day 3 -Day 8 (Expt. 3, oral)	Weight Change Day 0 -Day 3 (Expt. 3, oral)
1-[β-D-(5'-succinyl-2',3'-carbonyl)ribofuranosyl]-3-carbamoyl-1,2,4-triazole amantadine salt [Compound 6]	22.4	1.25	273	+0.9	+2.4	21.2	1.30**	266	+0.4	+2.1	22.5	1.25**	275	+0.7	+2.6
NC(=O)c1ncn([C@@H]2O[C@H](CO)[C@@H](O)[C@H]2O)n1 [Compound 1, 1-β-D-ribofuranosyl-3-carbamoyl-1,2,4-triazole, reference compound]	20.7	1.16	238	+0.8	+0.7*	20.5	1.36	291	+1.8	+0.2*	19.1	1.40**	285	-0.8	+0.9*
